Test results as given in US8486962B2, “Antifungal agents” (F2G Ltd., priority 2005, dated 2013).
Converted amounts (≈) assume the structure as drawn. Where two headings read alike, the source gives them in different places.

How the values were obtained:
Aspergillus flavus = assay: MIC, YAG medium, Aspergillus flavus; format: cell-based; settings: Aspergillus flavus, YAG medium
How it was run: (§1)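 Broth microdilution over doubling dilutions (50-0.05 mg/L). C. albicans in RPMI with 2% glucose and 0.135M MOPS (pH7.0), 1-2×10^3 cfu/ml, 24-48 hrs at 35° C; MIC = >80% growth inhibition by OD485. Aspergillus spp. in YAG (1% glucose, 1% ammonium chloride, 0.5% yeast extract), 1-2×10^4 cfu/ml, 24 hrs, >70% inhibition.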

[1] = system: Aspergillus fumigatus AF293; assay: MIC, YAG medium, Aspergillus fumigatus AF293; format: cell-based; settings: Aspergillus fumigatus, AF293; YAG medium; read-out: MIC A Fum. 293
How it was run: as §1

Aspergillus niger = assay: MIC, YAG medium, Aspergillus niger; format: cell-based; settings: Aspergillus niger, YAG medium
How it was run: as §1

Aspergillus terreus = assay: MIC, YAG medium, Aspergillus terreus; format: cell-based; settings: Aspergillus terreus, YAG medium
How it was run: as §1

[2] = system: Aspergillus fumigatus AF210; assay: MIC, YAG medium, Aspergillus fumigatus AF210; format: cell-based; settings: Aspergillus fumigatus, AF210; YAG medium; read-out: MIC A Fum. 210
How it was run: as §1

A Terreus 49 = assay: MIC, YAG medium, A Terreus 49; format: cell-based, Aspergillus terreus; settings: Aspergillus terreus; YAG medium; read-out: MIC A Terreus 49
How it was run: as §1

MIC (Aspergillus flavus; read-out: MIC A Flavus 01) [µg/mL]	MIC [1] [µg/mL]	MIC (Aspergillus niger; read-out: MIC A Niger 1) [µg/mL]	MIC (Aspergillus terreus; read-out: MIC A Terreus 4) [µg/mL]	MIC [2] [µg/mL]	MIC (A Terreus 49) [µg/mL]	MIC (Aspergillus flavus; read-out: MIC A Flavus) [µg/mL]	MIC (Aspergillus niger; read-out: MIC A Niger) [µg/mL]	MIC (Aspergillus terreus; read-out: MIC A Terreus) [µg/mL]	Structure (SMILES)
0.004 (≈ 0.0101 µM)	0.03 (≈ 0.0759 µM)	0.06 (≈ 0.152 µM)	0.004 (≈ 0.0101 µM)	0.03 (≈ 0.0759 µM)	0.001 (≈ 0.00253 µM)	–	–	–	CN1CCc2cc(NC(=O)C(=O)c3c(-c4ccccc4)cc4ccccn34)ccc21 [Example 261, N-(1-Methyl-2,3-dihydro-1H-indol-5-yl)-2-oxo-2-(2-phenyl-indolizin-3-yl)-acetamide]
25 (≈ 60.3 µM)	25 (≈ 60.3 µM)	50 (≈ 121 µM)	50 (≈ 121 µM)	> 50	25 (≈ 60.3 µM)	–	–	–	O=C(O)COc1cccc(NC(=O)C(=O)c2c(-c3ccccc3)cc3ccccn23)c1 [Example 294, {3-[2-Oxo-2-(2-phenyl-indolizin-3-yl)-acetylamino]-phenoxy}-acetic acid]
0.031 (≈ 0.0827 µM)	0.25 (≈ 0.667 µM)	0.031 (≈ 0.0827 µM)	0.031 (≈ 0.0827 µM)	0.12 (≈ 0.32 µM)	0.008 (≈ 0.0213 µM)	–	–	–	O=C(Nc1ccc(Cl)cc1)C(=O)c1c(-c2ccccc2)cc2ccccn12 [Example 281, N-(4-Chloro-phenyl)-2-oxo-2-(2-phenyl-indolizin-3-yl)-acetamide]
0.03 (≈ 0.0689 µM)	0.05 (≈ 0.115 µM)	0.015 (≈ 0.0344 µM)	0.03 (≈ 0.0689 µM)	0.1 (≈ 0.23 µM)	0.008 (≈ 0.0184 µM)	–	–	–	Cc1noc(C)c1-c1ccc(NC(=O)C(=O)c2c(-c3ccccc3)cc3ccccn23)cc1 [Example 287, N-[4-(3,5-Dimethyl-isoxazol-4-yl)-phenyl]-2-oxo-2-(2-phenyl-indolizin-3-yl)-acetamide]
0.4 (≈ 0.934 µM)	1.6 (≈ 3.73 µM)	0.4 (≈ 0.934 µM)	0.1 (≈ 0.233 µM)	0.8 (≈ 1.87 µM)	0.2 (≈ 0.467 µM)	–	–	–	C=CCc1c(F)ccc(NC(=O)C(=O)c2c(-c3ccccc3)cc3ccccn23)c1OC [Example 254, N-(3-Allyl-4-fluoro-2-methoxy-phenyl)-2-oxo-2-(2-phenyl-indolizin-3-yl)-acetamide]
0.05 (≈ 0.126 µM)	0.1 (≈ 0.252 µM)	0.05 (≈ 0.126 µM)	0.05 (≈ 0.126 µM)	0.1 (≈ 0.252 µM)	0.015 (≈ 0.0378 µM)	–	–	–	CC(=O)Cc1ccc(NC(=O)C(=O)c2c(-c3ccccc3)cc3ccccn23)cc1 [Example 284, 2-Oxo-N-[4-(2-oxo-propyl)-phenyl]-2-(2-phenyl-indolizin-3-yl)-acetamide]
0.015 (≈ 0.039 µM)	0.062 (≈ 0.161 µM)	0.008 (≈ 0.0208 µM)	0.031 (≈ 0.0806 µM)	0.062 (≈ 0.161 µM)	0.015 (≈ 0.039 µM)	–	–	–	COc1ccc(NC(=O)C(=O)c2c(-c3ccccc3C)cc3ccccn23)cc1 [Example 232, N-(4-Methoxy-phenyl)-2-oxo-2-(2-o-tolyl-indolizin-3-yl)-acetamide]
0.05 (≈ 0.131 µM)	0.4 (≈ 1.05 µM)	0.4 (≈ 1.05 µM)	0.1 (≈ 0.261 µM)	0.8 (≈ 2.09 µM)	0.05 (≈ 0.131 µM)	–	–	–	CC(=O)c1cccc(NC(=O)C(=O)c2c(-c3ccccc3)cc3ccccn23)c1 [Example 267, N-(3-Acetyl-phenyl)-2-oxo-2-(2-phenyl-indolizin-3-yl)-acetamide]
0.25 (≈ 0.618 µM)	1.6 (≈ 3.96 µM)	0.05 (≈ 0.124 µM)	0.8 (≈ 1.98 µM)	1.6 (≈ 3.96 µM)	0.12 (≈ 0.297 µM)	–	–	–	COC(=O)c1csc(NC(=O)C(=O)c2c(-c3ccccc3)cc3ccccn23)c1 [Example 154, 5-[2-Oxo-2-(2-phenyl-indolizin-3-yl)-acetylamino]-thiophene-3-carboxylic acid methyl ester]
0.062 (≈ 0.164 µM)	1.6 (≈ 4.24 µM)	0.5 (≈ 1.32 µM)	0.25 (≈ 0.662 µM)	1.6 (≈ 4.24 µM)	0.062 (≈ 0.164 µM)	–	–	–	COc1ccc(NC(=O)C(=O)c2c(-c3cccs3)cc3ccccn23)cn1 [Example 167, N-(6-Methoxy-pyridin-3-yl)-2-oxo-2-(2-thiophen-2-yl-indolizin-3-yl)-acetamide]
0.031 (≈ 0.0797 µM)	0.12 (≈ 0.309 µM)	0.062 (≈ 0.159 µM)	0.008 (≈ 0.0206 µM)	0.25 (≈ 0.643 µM)	0.004 (≈ 0.0103 µM)	–	–	–	Cc1ccc(Cl)cc1NC(=O)C(=O)c1c(-c2ccccc2)cc2ccccn12 [Example 246, N-(5-Chloro-2-methyl-phenyl)-2-oxo-2-(2-phenyl-indolizin-3-yl)-acetamide]
–	0.25 (≈ 0.612 µM)	–	–	0.25 (≈ 0.612 µM)	0.015 (≈ 0.0367 µM)	0.031 (≈ 0.0759 µM)	0.015 (≈ 0.0367 µM)	0.015 (≈ 0.0367 µM)	O=C(Nc1ccc(C(F)(F)F)cc1)C(=O)c1c(-c2ccccc2)cc2ccccn12 [Example 304, 2-Oxo-2-(2-phenyl-indolizin-3-yl)-N-(4-trifluoromethyl-phenyl)-acetamide]
0.05 (≈ 0.114 µM)	0.4 (≈ 0.912 µM)	0.05 (≈ 0.114 µM)	0.05 (≈ 0.114 µM)	0.8 (≈ 1.82 µM)	0.03 (≈ 0.0684 µM)	–	–	–	O=C(Nc1ccc(Nc2nccs2)cc1)C(=O)c1c(-c2ccccc2)cc2ccccn12 [Example 285, 2-Oxo-2-(2-phenyl-indolizin-3-yl)-N-[4-(thiazol-2-ylamino)-phenyl]-acetamide]
